Data reported in article PMC11063903, “Engineering a human P2X2 receptor with altered ligand selectivity in yeast” (The Journal of Biological Chemistry, 2024).

Key:
Format in all cases: cell-based
human P2X2 receptor = target: T1, human P2X2 receptor (Homo sapiens, UniProt Q9UBL9); test: GCaMP calcium assay of P2X2 expressed in yeast S. cerevisiae, agonist response
T1 construct: expressed in transfected cells; host or cells: S. cerevisiae BY4741 background, P2X2 genome-integrated under a galactose-inducible promoter
T1 sequence (Q9UBL9 1-471): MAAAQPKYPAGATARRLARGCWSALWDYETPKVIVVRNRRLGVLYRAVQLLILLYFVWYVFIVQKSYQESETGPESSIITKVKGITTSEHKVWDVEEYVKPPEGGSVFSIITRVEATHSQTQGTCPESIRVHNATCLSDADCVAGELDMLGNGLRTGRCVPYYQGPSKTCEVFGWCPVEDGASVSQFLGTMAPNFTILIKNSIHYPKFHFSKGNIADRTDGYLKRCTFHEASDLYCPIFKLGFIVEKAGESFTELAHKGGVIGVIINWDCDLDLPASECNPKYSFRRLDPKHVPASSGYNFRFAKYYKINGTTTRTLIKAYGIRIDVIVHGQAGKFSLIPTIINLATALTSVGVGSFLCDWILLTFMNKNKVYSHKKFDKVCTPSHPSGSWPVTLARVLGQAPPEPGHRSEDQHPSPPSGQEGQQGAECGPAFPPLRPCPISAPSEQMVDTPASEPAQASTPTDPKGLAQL
From the text: Although P2X receptors are expressed in many eukaryotic organisms including some fungi ([24]), they are not present in S. cerevisiae. For recombinant expression to yield functional P2X channels, receptor proteins must be correctly folded, assembled into trimers, and efficiently trafficked to the plasma membrane. To assess whether P2X ion channels could functionally gate in S. cerevisiae the canonical isoforms of P2X1-7 were co-expressed with aequorin, a calcium-activated photoprotein from the jellyfish Aequorea victoria.
Genetic knockouts of the calnexin homolog (ΔCne1p) and vacuolar calcium transporter (Δ Vcx1p) (n = 3) were compared to the WT yeast strain (n = 2). […] Statistical analysis was performed using one-way ANOVA with Dunnett’s multiple comparisons test where ∗∗ is p ≤ 0.01. […] Yeast were injected with ATP at 21 s and onset rates from the last six points (40–48 s) were used for calculating the dose response in (D). E and F, kinetic and dose–response measurements of P2X2 with the GCaMP reporter with ATP (n = 4), partial agonist BzATP (n = 3), and agonist 2-chloro-ATP (n = 4). Figures (D and F) share the figure legend with (C). […] Suramin was pre-equilibrated with P2X2-yeast for 10 min and 5 μM ATP was injected.
To expand the assay throughput to accommodate several 96-well plates at a time, we required the acquisition of short-duration signals. Since GCaMP signals are typically measured in terms of ΔF/F0, where ΔF is Fmax-Fmin, and since the signal takes several minutes to reach Fmax, we instead attempted to correlate the rate of signal onset (rather than its amplitude) with channel activity.
Having optimized our yeast strains and assay throughput, we sought to further validate the function of human P2X2 in the yeast host.
GCaMP assays were performed as follows. P2X2 GCaMP strains were designed with a bi-cistronic reporter, in which the GCaMP protein was followed by a 2A peptide and a mScarletI reporter ([53]). The co-translated mScarletI was designed to act as a control for plasmid loss, GCaMP breakage via nonsense mutation, and contamination. […] P2X2-GCaMP strains were cultured and induced as previously described. Samples were induced for 24 h to allow for the accumulation of the mature GCaMP protein. Cells were washed three times in 0.1 M MES/Tris buffer and resuspended with MES/Tris with supplemental calcium. Cells were loaded onto a black, clear bottom microplate and imaged on a FlexStation3 plate reader. Samples were imaged in “flex” mode. Samples were imaged for 48 s at an interval of 1.6 s. Fluorescence was measured with an excitation at 485 nm, and emission 525 nm. At the 21 s mark, 100 μl ligand solution was transferred to the cells. For strains with mScarlet, fluorescence was read with excitation 570 nm/emission 610 nm. Slopes were calculated from the last 6 points of measurement and were normalized to the positive control samples. Any replicate in which the mScarlet value was measured to be over 2 standard deviations less than the mean for that set was discarded from further analysis.

P2X2 G353R = target: T2, P2X2 G353R (Homo sapiens, UniProt Q9UBL9, G353R); test: Site-saturation screen, fast kinetic assay in yeast, G353R; conditions: 500 μM ATP, ΔF/ΔT normalized to WT
T2 construct: expressed in transfected cells; host or cells: S. cerevisiae BY4741 background
Procedure: Figure 2 P2X2 SNP testing.A, homology model of P2X2 with the clinically implicated SNPs highlighted. V60 is highlighted in magenta and G353 is highlighted in dark blue. Lines indicate the positions of the mutations on each of the three monomers. B, zoomed view of the transmembrane region from the purple box in (A). V60 is magenta and G353 is dark blue. The structure is rotated 60° on the right image. C, screening data from site-saturation of the V60 residue in saturating ATP concentration (500 μM f.c.) using the fast kinetic assay. Signal onset values (ΔF/ΔT) are normalized to values from the WT receptor. […] Each of 2 to 3 replicates is represented as a single point. […]
GCaMP assays were performed as follows. […] Cells were loaded onto a black, clear bottom microplate and imaged on a FlexStation3 plate reader. […] Fluorescence was measured with an excitation at 485 nm, and emission 525 nm. […] For strains with mScarlet, fluorescence was read with excitation 570 nm/emission 610 nm. Slopes were calculated from the last 6 points of measurement and were normalized to the positive control samples. Any replicate in which the mScarlet value was measured to be over 2 standard deviations less than the mean for that set was discarded from further analysis.

P2X2 Y299H = target: T3, P2X2 Y299H (Homo sapiens, UniProt Q9UBL9, Y299H); test: Site-saturation screen of ligand-binding domain with ATP, Y299H; conditions: 500 μM ATP, ± sd
T3 construct: expressed in transfected cells; host or cells: S. cerevisiae BY4741 background
From the text: The yeast P2X2 screening platform poses an opportunity to probe the structure-function of the ligand-binding domain in detail. The conserved P2X “NFR” motif at residues 300 to 302 is directly involved in bonding to the ATP triphosphate moiety ([41]), so we mutagenized residues at or near this motif (298–304), ultimately covering 133 variants (7 sites, 19 residues each). […] We compared our results to phylogenetic data based on a multiple sequence alignment (MSA) from a curated set of 419 related P2X homologs (Figs. 3B, and S5; Table S1).
Figure 3 Structure-function analysis of the ligand binding domain.A, heat map summarizing the screening data of ATP with seven site-saturation libraries surrounding the NFR-motif. B, sequence-logo plot of the mutagenized residues and percent identity scores as determined from MSA. C, homology model of P2X2 colored by sequence conservation as calculated from a multiple sequence alignment of 419 related P2X genes. Conservation is scored on a log scale where maroon is more conserved and blue is less conserved. D, ATP in the ligand-binding pocket of P2X2. […]
GCaMP assays were performed as follows. […] Cells were loaded onto a black, clear bottom microplate and imaged on a FlexStation3 plate reader. […] Fluorescence was measured with an excitation at 485 nm, and emission 525 nm. […] For strains with mScarlet, fluorescence was read with excitation 570 nm/emission 610 nm. […]

T3 sequence (Q9UBL9 whole entry Y299H, the tested form may be a part): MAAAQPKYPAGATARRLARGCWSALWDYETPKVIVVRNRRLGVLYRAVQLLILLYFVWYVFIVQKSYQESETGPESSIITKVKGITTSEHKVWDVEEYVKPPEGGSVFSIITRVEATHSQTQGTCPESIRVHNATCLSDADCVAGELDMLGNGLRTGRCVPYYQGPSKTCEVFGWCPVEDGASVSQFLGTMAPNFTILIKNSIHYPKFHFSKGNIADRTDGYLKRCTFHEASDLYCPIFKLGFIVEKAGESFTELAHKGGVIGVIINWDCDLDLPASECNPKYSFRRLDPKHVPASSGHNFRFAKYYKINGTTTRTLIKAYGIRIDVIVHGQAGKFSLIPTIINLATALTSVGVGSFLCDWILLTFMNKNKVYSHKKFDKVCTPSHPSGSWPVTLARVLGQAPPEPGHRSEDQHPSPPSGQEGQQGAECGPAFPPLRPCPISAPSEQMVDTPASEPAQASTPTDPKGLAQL
T2 sequence (Q9UBL9 whole entry G353R): as the sequence (Q9UBL9 whole entry Y299H, the tested form may be a part) above, with H299Y, G353R counted along it

SMILES: Nc1ncnc2c1ncn2[C@@H]1O[C@H](COP(=O)(O)OP(=O)(O)OP(=O)(O)O)[C@@H](O)[C@H]1O [ATP]
- maximum fluorescence compared to a negative control receptor (human P2X2 receptor; GCaMP strain, saturating (500 μM) ATP, vs K81C K83C P2X2): 12 fold
- pEC50 (signaling onset rate ΔF/ΔT) (human P2X2 receptor; rapid GCaMP assay format, yeast, Fig. 1D): 5.88 ± 0.056
- EC50 (human P2X2 receptor; rapid GCaMP assay format, yeast, Fig. 1D, read-out: EC50 (signaling onset rate ΔF/ΔT)): 1.3 µM
- function in the assay (P2X2 G353R): not observed to be functional
- signal relative to WT (P2X2 Y299H): 11 ± 5%
